These results are taken from patent US11311576B2, “Methods of use for CAR T cells” (Seattle Children's Hospital, priority 2018, dated 2022).

The test system of series [1] is MDA-MB-231 tumors. The series is described as follows: EC17/E2-CAR T-cell therapy in NSG mice bearing MDA-MB-231 tumors. The format is in vivo. Conditions: 10 million E2 CAR-T cells, EC17 500 nmol/kg days 2 and 10, versus no EC17. How it is done:
MDA-MB-231 tumor cells were grown in folate-deficient RPMI 1640 with 5-10% FBS at 37° C. in a 5% CO2 humidified atmosphere. MDA-MB-231 tumor cells were inoculated subcutaneously at 2.5×10^6 cells per animal. Only […] mice were inoculated and the remaining 22 mice were kept tumor-free.
EGFRt-sorted anti-FITC E2 scFv-CAR T cells were frozen in a T-cell freezing medium. Vials of frozen CAR-T cells were immediately stored at −80° C. The CAR-T cells were quickly thawed at 37° C., washed twice with PBS, and used for animal injection at 10 million viable EGFRt+E2 CAR-T cells (CD4/CD8 at ˜1:1) per animal. […]
(§1) Whole blood cell analysis: Plasma was removed from predetermined volumes of whole EDTA treated blood and RBCs were lysed with RBC lysis solution. […] Determination of the concentration of CAR T cells in each blood sample was calculated according to Invitrogen's instructions. CAR T cells were identified as human CD3ε+ EGFRt+ events and easily distinguished and counted using the Kaluza™ flow cytometry software. The number of CAR T cells in the circulation of each infused mouse was then represented on the graphs as the total number of CAR T cells per 100 μL of whole blood analyzed. Statistical significance was determined by utilizing an unpaired, two-tailed, students t30 test with significance set at p<0.05. […]

The nature of series [2]: EC17/E2-CAR T-cell therapy in naïve NSG mice without tumor. The format is in vivo. Conditions: 10 million E2 CAR-T cells, EC17 500 nmol/kg x2 doses. How it is done:
EGFRt-sorted anti-FITC E2 scFv-CAR T cells were frozen in a T-cell freezing medium. Vials of frozen CAR-T cells were immediately stored at −80° C. The CAR-T cells were quickly thawed at 37° C., washed twice with PBS, and used for animal injection at 10 million viable EGFRt+E2 CAR-T cells (CD4/CD8 at ˜1:1) per animal. A small aliquot was taken on the day infusion for flow cytometric analysis of E2-CAR T-cell phenotypes.
Mouse blood samples were processed for plasma and stored at −20° C. until use. A human TH1 cytokine panel (Biolegend, Cat. No. 740009) and a human hematopoietic stem cell cytokine panel (Biolegend, Cat. No. 740610) was used to detect human cytokines in the mouse blood. […]
as §1

The subject of series [3] is MDA-MB-231 tumors. The experiment in a line: Dietary folate effect on antitumor activity and CRS toxicity, MDA-MB-231 tumors. In kind it is in vivo, NSG mice. How it is done: To study the effect of high dietary folate (FIG. 63A, FIG. 63B, FIG. 63C, FIG. 63D), two sets of NSG mice were placed on either a FA-replete diet (4 mg/kg, Envigo, Indianapolis, Ind.) or a FA-deficient diet (TestDiet, St. Louis, Mo.) upon arrival. On day 0, both sets of the mice received ˜10 million of the same “clinical facsimile” CAR-T cells followed by no EC17 or EC17 SIW at 500 nmol/kg starting on day 3. On the first day of EC17 administration, MDA-MB-231 tumors size averaged around ˜549±184 mm^3 (280-918 mm3) in FA-replete mice, and ˜559±165 mm^3 (356-961 mm^3) in FA-deficient mice.
Previously, it was shown that administration of FA or a FA ligand helped reduce the severity of CRS in MDA-MB-231 tumor-bearing mice. To test the long-term effect of dietary folate, mice were maintained on defined diets for ˜73 days and used when their tumors reached ˜549±184 mm3 (280-918 mm^3) in FA-replete mice, and ˜559±165 mm^3 (356-961 mm^3) in FA-deficient mice (FIG. 63A, FIG. 63B, FIG. 63C, FIG. 63D).

Where [4] appears, read: FA-deficient diet, each subsequent EC17 dose.
The mark [5] stands for this setting: FA-replete mice, CAR-T cells plus EC17.

`NC1=NC2N=CC(CNc3ccc(C(=O)N[C@@H](CCC(=O)NCCNC(=S)Nc4ccc(-c5c6ccc(=O)cc-6oc6cc(O)ccc56)c(C(=O)O)c4)C(=O)O)cc3)=NC2C(=O)N1` (stereo partly shown) [EC17, FA-(g)-ethylenediamine-FITC]: in the series with MDA-MB-231 tumors [1], the “cytokine levels (IL2, IFN-γ, IL-10) in plasma” value is “all increased”. For the same molecule, the “IFN-g production, difference between tumor-free and MDA-MB-231 tumor-bearing mice” value in series [2] stood at 23 fold. In the series on MDA-MB-231 tumors [3] (setting [4]), the CRS grade is listed as 2-3 and the body weight loss is on record as at most 11.4%. Further, the cures in the series with MDA-MB-231 tumors [3] (FA-deficient mice, CAR-T cells plus EC17) was 5/5. In the series with MDA-MB-231 tumors [3] (FA-replete diet, eight weekly EC17 doses of 500 nmol/kg), the “symptoms of CRS” value is listed as “did not show symptoms of CRS”. Moreover, in the series on MDA-MB-231 tumors [3] (setting [5]), the complete responses was 2/5, the cures is listed as 2/5 and the partial response was 1/5. In the series with MDA-MB-231 tumors [3] (~10 million clinical facsimile E2-CAR-T cells, EC17 500 nmol/kg, either diet), the “CRS or body weight loss after first full dose” value was “did not cause any CRS or body weight loss”.
